Measured values published in US20250197407A1 (Jazz Pharmaceuticals Ireland Limited, priority 2022, published 2025).

The compounds below were run against SOS1/KRAS WT (Homo sapiens (Human), UniProt Q07889) (assay: SOS1/KRAS WT HTRF binding assay (FRET-based protein-protein interaction)). Details: inhibition of His6-SOS1 (aa564-1049, 40 nM) binding to GST-KRAS-WT (aa1-188, 40 nM); at least two independent replicates; read-out: SOS1/KRAS WT HTRF Binding assay pIC50 (converted).
In short: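 Time-resolved FRET at 665 nm, read 4 hr after adding anti-GST-Eu(K) (4 nM) and anti-6His-XL665 (20 nM), tracked SOS1(aa564-1049)–KRAS WT(aa1-188) association. Both proteins were at 40 nM, pre-incubated 60 min at room temperature with compound. Max/min signals came from 0.05% DMSO and 10 μM reference, with four-parameter logistic IC50.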

Chain of SOS1/KRAS WT (Q07889 564-1049): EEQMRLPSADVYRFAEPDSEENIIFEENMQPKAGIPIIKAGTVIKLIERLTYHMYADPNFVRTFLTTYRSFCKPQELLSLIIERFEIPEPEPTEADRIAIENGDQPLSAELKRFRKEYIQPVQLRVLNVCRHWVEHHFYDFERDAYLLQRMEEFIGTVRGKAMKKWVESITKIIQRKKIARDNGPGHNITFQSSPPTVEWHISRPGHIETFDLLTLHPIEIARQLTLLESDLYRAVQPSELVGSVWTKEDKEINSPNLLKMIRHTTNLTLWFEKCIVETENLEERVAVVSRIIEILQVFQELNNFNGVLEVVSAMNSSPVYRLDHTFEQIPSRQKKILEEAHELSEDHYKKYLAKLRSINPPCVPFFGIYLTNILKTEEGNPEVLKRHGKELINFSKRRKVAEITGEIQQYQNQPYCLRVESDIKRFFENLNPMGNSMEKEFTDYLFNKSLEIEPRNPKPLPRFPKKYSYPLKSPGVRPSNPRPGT

| IC50 [nM] | SMILES |
| --- | --- |
| 8.91 | CCN1C(=O)C(C)(OC)c2cc3c(C)nnc(N[C@H](C)c4cccc(C(F)(F)CO)c4C)c3cc21 (stereo partly drawn) [Compound 168, 1-ethyl-3-methoxy-3,5-dimethyl-8-[[(1R)-1-[3-(1,1-difluoro-2-hydroxy-ethyl)-2-methyl-phenyl]ethyl]amino]pyrrolo[2,3-g]phthalazin-2-one] |
| 10.2 | CCN1C(=O)C(C)(OC)c2cc3c(C)nnc(N[C@H](C)c4cccc(C(F)(F)C(C)(C)O)c4C)c3cc21 (stereo partly drawn) [Compound 169, 1-ethyl-3-methoxy-3,5-dimethyl-8-[[(1R)-1-[3-(1,1-difluoro-2-hydroxy-2-methyl-propyl)-2-methyl-phenyl]ethyl]amino]pyrrolo[2,3-g]phthalazin-2-one] |
| 9.12 | CCN1C(=O)C(C)(OC)c2cc3c(C)nnc(N[C@H](C)c4cccc(C(F)(F)C(C)(C)O)c4F)c3cc21 (stereo partly drawn) [Compound 170, 1-ethyl-3-methoxy-3,5-dimethyl-8-[[(1R)-1-[3-(1,1-difluoro-2-hydroxy-2-methyl-propyl)-2-fluoro-phenyl]ethyl]amino]pyrrolo[2,3-g]phthalazin-2-one] |
| 9.77 | CCN1C(=O)C(C)(OC)c2cc3c(C)nnc(N[C@H](C)c4cccc(C(F)(F)CO)c4)c3cc21 (stereo partly drawn) [Compound 171, 1-ethyl-3-methoxy-3,5-dimethyl-8-[[(1R)-1-[3-(1,1-difluoro-2-hydroxy-ethyl)phenyl]ethyl]amino]pyrrolo [2,3-g]phthalazin-2-one] |
| 9.77 | CCN1C(=O)C(C)(OC)c2cc3c(C)nnc(N[C@H](C)c4cccc(C(F)(F)CO)c4F)c3cc21 (stereo partly drawn) [Compound 172, 1-ethyl-3-methoxy-3,5-dimethyl-8-[[(1R)-1-[3-(1,1-difluoro-2-hydroxy-ethyl)-2-fluoro-phenyl]ethyl]amino]pyrrolo[2,3-g]phthalazin-2-one] |
| 11.7 | CCN1C(=O)C(C)(OC)c2cc3c(C)nnc(N[C@H](C)c4cccc(C(F)(F)C(C)(C)O)c4)c3cc21 (stereo partly drawn) [Compound 173, 1-ethyl-3-methoxy-3,5-dimethyl-8-[[(1R)-1-[3-(1,1-difluoro-2-hydroxy-2-methyl-propyl)phenyl]ethyl]amino]pyrrolo [2,3-g]phthalazin-2-one] |
| 15.8 | COC1(C)C(=O)N(C)c2cc3c(C)nnc(N[C@H](C)c4cccc(C(F)(F)C(C)(C)O)c4C)c3cc21 (stereo partly drawn) [Compound 174, 3-methoxy-1,3,8-trimethyl-5-[[(1R)-1-[3-(1,1-difluoro-2-hydroxy-2-methyl-propyl)-2-methyl-phenyl]ethyl]amino]pyrrolo[3,2-g]phthalazin-2-one] |
| 14.5 | COC1(C)C(=O)N(C)c2cc3c(N[C@H](C)c4cc(F)cc(C(F)(F)C(C)(C)O)c4)nnc(C)c3cc21 (stereo partly drawn) [Compound 175, 3-methoxy-1,3,5-trimethyl-8-[[(1R)-1-[3-(1,1-difluoro-2-hydroxy-2-methyl-propyl)-5-fluoro-phenyl]ethyl]amino]pyrrolo[2,3-g]phthalazin-2-one] |
| 10.7 | COC1(C)C(=O)N(C)c2cc3c(C)nnc(N[C@H](C)c4cccc(C(F)(F)CO)c4F)c3cc21 (stereo partly drawn) [Compound 176, 3-methoxy-1,3,8-trimethyl-5-[[(1R)-1-[3-(1,1-difluoro-2-hydroxy-ethyl)-2-fluoro-phenyl]ethyl]amino]pyrrolo[3,2-g]phthalazin-2-one] |
| 9.77 | COC1(C)C(=O)N(C)c2cc3c(C)nnc(N[C@H](C)c4cccc(C(F)(F)CO)c4C)c3cc21 (stereo partly drawn) [Compound 177, 3-methoxy-1,3,8-trimethyl-5-[[(1R)-1-[3-(1,1-difluoro-2-hydroxy-ethyl)-2-methyl-phenyl]ethyl]amino]pyrrolo[3,2-g]phthalazin-2-one] |
| 16.6 | COC1(C)C(=O)N(C)c2cc3c(C)nnc(N[C@H](C)c4cccc(C(F)(F)CO)c4)c3cc21 (stereo partly drawn) [Compound 178, 3-methoxy-1,3,8-trimethyl-5-[[(1R)-1-[3-(1,1-difluoro-2-hydroxy-ethyl)phenyl]ethyl]amino]pyrrolo [3,2-g]phthalazin-2-one] |
| 10.2 | COC1(C)C(=O)N(C)c2cc3c(C)nnc(N[C@H](C)c4cccc(C(F)(F)C(C)(C)O)c4F)c3cc21 (stereo partly drawn) [Compound 179, 3-methoxy-1,3,8-trimethyl-5-[[(1R)-1-[3-(1,1-difluoro-2-hydroxy-2-methyl-propyl)-2-fluoro-phenyl]ethyl]amino]pyrrolo[3,2-g]phthalazin-2-one] |
| 12 | COC1(C)C(=O)N(C)c2cc3c(C)nnc(N[C@H](C)c4cccc(C(F)(F)C(C)(C)O)c4)c3cc21 (stereo partly drawn) [Compound 180, 3-methoxy-1,3,8-trimethyl-5-[[(1R)-1-[3-(1,1-difluoro-2-hydroxy-2-methyl-propyl)phenyl]ethyl]amino]pyrrolo [3,2-g]phthalazin-2-one] |
| 13.2 | COC1(C)C(=O)N(C)c2cc3c(N[C@H](C)c4cc(F)cc(C(F)(F)C(C)(C)O)c4C)nnc(C)c3cc21 (stereo partly drawn) [Compound 181, 3-methoxy-1,3,5-trimethyl-8-[[(1R)-1-[3-(1,1-difluoro-2-hydroxy-2-methyl-propyl)-5-fluoro-2-methyl-phenyl]ethyl]amino]pyrrolo[2,3-g]phthalazin-2-one] |
| 9.77 | COC1(C)C(=O)N(C)c2cc3c(N[C@H](C)c4cc(C)cc(C(F)(F)CO)c4C)nnc(C)c3cc21 (stereo partly drawn) [Compound 182, 3-methoxy-1,3,5-trimethyl-8-[[(1R)-1-[3-(1,1-difluoro-2-hydroxy-ethyl)-2,5-dimethyl-phenyl]ethyl]amino]pyrrolo[2,3-g]phthalazin-2-one] |
| 11 | COC1(C)C(=O)N(C)c2cc3c(N[C@H](C)c4cc(F)cc(C(F)(F)CO)c4C)nnc(C)c3cc21 (stereo partly drawn) [Compound 183, 3-methoxy-1,3,5-trimethyl-8-[[(1R)-1-[3-(1,1-difluoro-2-hydroxy-ethyl)-5-fluoro-2-methyl-phenyl]ethyl]amino]pyrrolo[2,3-g]phthalazin-2-one] |
| 14.8 | CCOC1(C)C(=O)N(C)c2cc3c(C)nnc(N[C@H](C)c4cccc(C(F)(F)C(C)(C)O)c4)c3cc21 (stereo partly drawn) [Compound 184, 3-ethoxy-1,3,8-trimethyl-5-[[(1R)-1-[3-(1,1-difluoro-2-hydroxy-2-methyl-propyl)phenyl]ethyl]amino]pyrrolo [3,2-g]phthalazin-2-one] |
| 24.5 | CCOC1(C)C(=O)N(C)c2cc3c(C)nnc(N[C@H](C)c4cccc(C(F)(F)C(C)(C)O)c4C)c3cc21 (stereo partly drawn) [Compound 185, 3-ethoxy-1,3,8-trimethyl-5-[[(1R)-1-[3-(1,1-difluoro-2-hydroxy-2-methyl-propyl)-2-methyl-phenyl]ethyl]amino]pyrrolo[3,2-g]phthalazin-2-one] |
| 8.32 | Cc1c([C@@H](C)Nc2nnc(C)c3cc4c(cc23)N(C)C(=O)C42CCCC2)cccc1C(F)(F)C(C)(C)O [Compound 186, 1′,5′-dimethyl-8′-[[(1R)-1-[3-(1,1-difluoro-2-hydroxy-2-methyl-propyl)-2-methyl-phenyl]ethyl]amino]spiro [cyclopentane-1,3′-pyrrolo[2,3-g]phthalazine]-2′-one] |
| 21.9 | Cc1nnc(N[C@H](C)c2cc(F)cc(C(F)(F)CO)c2)c2cc3c(cc12)C1(CCCC1)C(=O)N3C [Compound 187, 1′,5′-dimethyl-8′-[[(1R)-1-[3-(1,1-difluoro-2-hydroxy-ethyl)-5-fluoro-phenyl]ethyl]amino]spiro [cyclopentane-1,3′-pyrrolo[2,3-g]phthalazine]-2′-one] |
| 9.33 | Cc1nnc(N[C@H](C)c2cccc(C(F)(F)C(C)(C)O)c2)c2cc3c(cc12)C1(CCCC1)C(=O)N3C [Compound 188, 1′,5′-dimethyl-8′-[[(1R)-1-[3-(1,1-difluoro-2-hydroxy-2-methyl-propyl)phenyl]ethyl]amino]spiro [cyclopentane-1,3′-pyrrolo[2,3-g]phthalazine]-2′-one] |
| 6.76 | Cc1nnc(N[C@H](C)c2cccc(C(F)(F)CO)c2F)c2cc3c(cc12)C1(CCCC1)C(=O)N3C [Compound 189, 1′,5′-dimethyl-8′-[[(1R)-1-[3-(1,1-difluoro-2-hydroxy-ethyl)-2-fluoro-phenyl]ethyl]amino]spiro[cyclopentane-1,3′-pyrrolo[2,3-g]phthalazine]-2′-one] |
| 16.6 | CCOC1(C)C(=O)N(C)c2cc3c(C)nnc(N[C@H](C)c4cccc(C(F)(F)C(C)(C)O)c4F)c3cc21 (stereo partly drawn) [Compound 190, 3-ethoxy-1,3,8-trimethyl-5-[[(1R)-1-[3-(1,1-difluoro-2-hydroxy-2-methyl-propyl)-2-fluoro-phenyl]ethyl]amino]pyrrolo[3,2-g]phthalazin-2-one] |
| 23.4 | CCC1(OC)C(=O)N(C)c2cc3c(C)nnc(N[C@H](C)c4cccc(C(F)(F)C(C)(C)O)c4C)c3cc21 (stereo partly drawn) [Compound 191, 5-[[(1R)-1-[3-(1,1-difluoro-2-hydroxy-2-methyl-propyl)-2-methyl-phenyl]ethyl]amino]-3-ethyl-3-methoxy-1,8-dimethyl-pyrrolo[2,3-g]phthalazin-2-one] |
| 16.2 | CCC1(OC)C(=O)N(C)c2cc3c(C)nnc(N[C@H](C)c4cccc(C(F)(F)C(C)(C)O)c4)c3cc21 (stereo partly drawn) [Compound 192, 5-[[(1R)-1-[3-(1,1-difluoro-2-hydroxy-2-methyl-propyl)phenyl]ethyl]amino]-3-ethyl-3-methoxy-1,8-dimethyl-pyrrolo[2,3-g]phthalazin-2-one] |
| 8.71 | Cc1c([C@@H](C)Nc2nnc(C)c3cc4c(cc23)N(C)C(=O)C42CCCC2)cccc1C(F)(F)CO [Compound 193, 1′,5′-dimethyl-8′-[[(1R)-1-[3-(1,1-difluoro-2-hydroxy-ethyl)-2-methyl-phenyl]ethyl]amino]spiro[cyclopentane-1,3′-pyrrolo[2,3-g]phthalazine]-2′-one] |
